Here are results for 2 compounds from patent US20050080139A1, “Naaladase inhibitors for treating huntington's disease” (priority 2001, published 2005).

For assay [1], the system named is Transgenic HD mice of the N171-82Q strain. Kind of assay: Rotarod behavioral testing in transgenic mouse model of Huntington's disease. The class given is in vivo. Conditions: transgenic HD mice N171-82Q, 30 mg/kg from 10 weeks of age, vs vehicle. As for the experimental part: Transgenic HD mice of the […]-[…] strain and non-transgenic littermates were treated with NAALADase inhibitor Compound B (30 mg/kg) or a vehicle from 10 weeks of age. The mice were placed on a rotating rod (“rotarod”). The length of time at which the mouse fell off the rotarod was recorded as a measure of motor coordination. […] The treatment with Compound B had no effect on the rotarod performance of normal non-HD mice.

For assay [2] the test system is unchanged. The assay is described as follows: Total distance traveled (overall locomotion) in HD mice. Format: in vivo. The following applies: 30 mg/kg from 10 weeks of age, vs vehicle. As for the experimental part: Transgenic HD mice of the […]-[…] strain and non-transgenic littermates were treated with NAALADase inhibitor Compound B (30 mg/kg) or a vehicle from 10 weeks of age. The mice were placed on a rotating rod (“rotarod”). The length of time at which the mouse fell off the rotarod was recorded as a measure of motor coordination. […] The treatment with Compound B had no effect on the rotarod performance of normal non-HD mice. The total distance traveled by the mice was also recorded as a measure of overall locomotion.

Assay [3] concerns transgenic HD mice (N171-82Q). Kind of assay: Survival of transgenic HD mice. Format: in vivo. As for the experimental part:
The effects of Compound B and vehicle on the survival of transgenic HD mice (N171-82Q) were evaluated. Thirteen mice (six male and seven female) were assigned to the Compound B treatment group, and fourteen mice (six male and eight female) were assigned to the vehicle treatment group. Treatment was continued until all the mice died.

For the next assay, the target named is NAALADase (Homo sapiens, UniProt Q04609). Conditions: NAAG as substrate of NAALADase; cited from earlier work.
NAALADase, sequence (Q04609 whole entry): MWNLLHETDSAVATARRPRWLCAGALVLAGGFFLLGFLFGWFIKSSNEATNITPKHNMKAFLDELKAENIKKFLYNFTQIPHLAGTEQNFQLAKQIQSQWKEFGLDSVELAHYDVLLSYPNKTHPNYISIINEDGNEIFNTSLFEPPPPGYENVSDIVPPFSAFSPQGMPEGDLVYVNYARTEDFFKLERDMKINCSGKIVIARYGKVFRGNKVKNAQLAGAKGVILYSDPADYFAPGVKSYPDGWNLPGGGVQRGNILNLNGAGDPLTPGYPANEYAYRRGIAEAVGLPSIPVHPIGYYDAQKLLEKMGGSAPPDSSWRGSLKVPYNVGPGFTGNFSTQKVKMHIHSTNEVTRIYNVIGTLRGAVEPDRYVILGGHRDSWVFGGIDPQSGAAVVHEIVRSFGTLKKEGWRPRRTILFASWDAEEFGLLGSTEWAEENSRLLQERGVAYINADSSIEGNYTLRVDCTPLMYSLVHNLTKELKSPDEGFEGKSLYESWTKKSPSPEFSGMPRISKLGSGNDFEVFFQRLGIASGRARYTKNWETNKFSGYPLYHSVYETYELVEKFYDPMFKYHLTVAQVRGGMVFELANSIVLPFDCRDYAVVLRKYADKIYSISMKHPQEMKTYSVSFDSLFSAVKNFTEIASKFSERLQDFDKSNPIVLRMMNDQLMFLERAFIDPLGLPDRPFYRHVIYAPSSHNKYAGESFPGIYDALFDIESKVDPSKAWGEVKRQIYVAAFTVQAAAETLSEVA

In the case of `O=C(O)CCC(CCCS)C(=O)O` (stereo not drawn) [Compound B, 2-(3-sulfanylpropyl)-pentanedioic acid], the “rotarod performance (length of time on the rotarod, motor coordination)” value in assay [1] is listed as “stayed longer on the rotarod”. For the same compound, in assay [2], the “total distance traveled (overall locomotion)” value is listed as “no apparent effect on overall locomotion”. For the same compound, the “survival time vs vehicle” value in assay [3] (female transgenic HD mice, p-value 0.03) was “significantly prolonged survival time”; in assay [3] (transgenic HD mice N171-82Q, both sexes, difference in median survival time), “not statistically significant”. Also, the median survival time in assay [3] (transgenic HD mice N171-82Q, both sexes, vehicle 158.5 days, p-value=0.07) was 184 days.

By Km is commonly meant the concentration of substrate that gives half-maximal velocity. As for N-acetyl-aspartyl-glutamate [NAAG], on NAALADase, the Km was 0.54 µM.
